Measurements as given in US20240424118A1, “VECTORS TARGETING BETA-D-N-ACETYLGLUCOSAMINIDASE” (CENTRE NATIONAL DE LA RECHERCHE SCIENTIFIQUE, priority 2021, published 2024).

Tests used:
MDA-MB-231 tumor line = assay: Antiproliferative activity (cell viability) on MDA-MB-231 tumor line, with or without β-N-acetylglucosaminidase; type: cell-based, human; conditions: MDA-MB-231 cells, 72 hours of incubation
Protocol: (§1) The curves with the circles correspond to MMAE, the curves with the squares correspond to vector 80 and the curves with the triangles correspond to vector 80 in the presence of GlcNase.
(§2) The antiproliferative activity of vector 80 was evaluated on human KB and MDA-MB-231 tumor lines and compared to that of MMAE. To do this, compound 80 was placed in the culture medium in the absence or presence of β-N-acetylglucosaminidase and cell viability was measured after 72 hours of incubation (FIG. 1).

KB tumor line = assay: Antiproliferative activity (cell viability) on KB tumor line, with or without β-N-acetylglucosaminidase; type: cell-based, human; conditions: KB cells, 72 hours of incubation
Protocol: as §1, §2

[1] = system: MDA-MB-231 orthotopic tumors; assay: Therapeutic efficacy on MDA-MB-231 orthotopic triple negative breast tumor model in mice; type: in vivo
Protocol: The vectors were administered on days 21, 35 and 49. Each point corresponds to the average of the tumor volumes±SEM. The curves with the triangles correspond to the vehicle and the curves with the squares correspond to the vector 80.
The therapeutic efficacy of vector 80 was evaluated in mice, on a triple negative breast tumor model of the MDA-MB-231 type (FIG. 2). Compound 80 was administered three times, with a period of 14 days, intravenously in the caudal vein, at a dose of 4 mg·kg^−1.

Structure (SMILES): CC[C@H](C)[C@@H]([C@@H](CC(=O)N1CCC[C@H]1[C@H](OC)[C@@H](C)C(=O)N[C@H](C)[C@@H](O)c1ccccc1)OC)N(C)C(=O)[C@@H](NC(=O)[C@H](C(C)C)N(C)C(=O)OC(Cc1cn(CCOCCOCCOCCOCCOCCOCCOCCOCCOCCOCCNC(=O)CCCCCN2C(=O)C=CC2=O)nn1)c1ccc(O[C@@H]2OC(CO)[C@@H](O)[C@H](O)C2NC(C)=O)c([N+](=O)[O-])c1)C(C)C (stereo partly shown) [vector 80]
- cytotoxicity in the absence versus presence of β-N-acetylglucosaminidase (MDA-MB-231 tumor line): identical cytotoxicity
- cytotoxicity in the absence versus presence of β-N-acetylglucosaminidase (KB tumor line): identical cytotoxicity
- therapeutic activity relative to the control group ([1]; 4 mg·kg^−1 intravenously, days 21, 35 and 49): significant therapeutic activity
- mice with total and lasting regression of the tumor ([1]; end of the experiment (day 63), 4 mg·kg^−1 intravenously): 3/6
- mice that no longer had detectable tumors ([1]; from day 35, after the first injection, 4 mg·kg^−1 intravenously): 4/6
- reduction in the initial tumor size (initial response to treatment) ([1]; initial response, before regrowth at day 42, 4 mg·kg^−1 intravenously): 90%
- mortality (tolerance) ([1]; until end of protocol (day 63), 4 mg·kg^−1 intravenously, three administrations): no mortality
